Experiments:
[1] = (§1) Excretory balance of radioactivity in urine following intravenous 14C-epirubicin at 1 mg.Kg-1 dose in rat; assay type: ADME, organism-based, SD; set-up: dose 1 mg.Kg-1, dosed compound id 2.46808e+06, dosed compound name 14C-Epirubicin, route intravenous, sampling time 0-2 h; conditions: in vivo
[2] = (§2) Excretory balance of radioactivity in bile following intravenous 14C-epirubicin at 0.45 ug.eq.Kg-1 dose in rat; assay type: ADME, organism-based, SD; set-up: dose 0.45 ug.eq.Kg-1, dosed compound id 2.46808e+06, dosed compound name 14C-Epirubicin, route intravenous, sampling time 0-2 h, study doses 0.45 ug.eq.Kg-1; conditions: in vivo
[3] = (§3) Excretory balance of radioactivity in bile following intravenous 14C-epirubicin at 1 mg.Kg-1 dose in rat; assay type: ADME, organism-based, SD; set-up: dose 1 mg.Kg-1, dosed compound id 2.46808e+06, dosed compound name 14C-Epirubicin, route intravenous, sampling time 0-24 h; conditions: in vivo
[4] = (§4) Excretory balance of radioactivity in faeces following intravenous 14C-epirubicin at 0.45 ug.eq.Kg-1 dose in rat; assay type: ADME, organism-based, SD, Feces; set-up: dose 0.45 ug.eq.Kg-1, dosed compound id 2.46808e+06, dosed compound name 14C-Epirubicin, route intravenous, sampling time 0-2 h, study doses 0.45 ug.eq.Kg-1; conditions: in vivo
[5] = Excretion of radioactivity in faeces following single intravenous 14C-epirubicin at 75 mg.m-2 dose in cancer patients; assay type: ADME, organism-based, Feces; set-up: dose 75 mg.m-2, dosed compound id 2.46808e+06, dosed compound name 14C-Epirubicin, regimen Single, sampling time 10 Day; conditions: human, in vivo, at 75 mg/m2
[6] = as §4; assay type: ADME, organism-based, SD, Feces; set-up: dose 0.45 ug.eq.Kg-1, dosed compound id 2.46808e+06, dosed compound name 14C-Epirubicin, route intravenous, sampling time 0-4 h, study doses 0.45 ug.eq.Kg-1; conditions: in vivo
[7] = as §4; assay type: ADME, organism-based, SD, Feces; set-up: dose 0.45 ug.eq.Kg-1, dosed compound id 2.46808e+06, dosed compound name 14C-Epirubicin, route intravenous, sampling time 0-8 h, study doses 0.45 ug.eq.Kg-1; conditions: in vivo
[8] = (§5) Excretory balance of radioactivity in faeces following intravenous 14C-epirubicin at 1 mg.Kg-1 dose in rat; assay type: ADME, organism-based, SD, Feces; set-up: dose 1 mg.Kg-1, dosed compound id 2.46808e+06, dosed compound name 14C-Epirubicin, route intravenous, sampling time 0-2 h; conditions: in vivo
[9] = as §3; assay type: ADME, organism-based, SD; set-up: dose 1 mg.Kg-1, dosed compound id 2.46808e+06, dosed compound name 14C-Epirubicin, route intravenous, sampling time 0-4 h; conditions: in vivo
[10] = as §1; assay type: ADME, organism-based, SD; set-up: dose 1 mg.Kg-1, dosed compound id 2.46808e+06, dosed compound name 14C-Epirubicin, route intravenous, sampling time 0-8 h; conditions: in vivo
[11] = (§6) Excretory balance of radioactivity in urine following intravenous 14C-epirubicin at 0.45 ug.eq.Kg-1 dose in rat; assay type: ADME, organism-based, SD; set-up: dose 0.45 ug.eq.Kg-1, dosed compound id 2.46808e+06, dosed compound name 14C-Epirubicin, route intravenous, sampling time 0-4 h, study doses 0.45 ug.eq.Kg-1; conditions: in vivo
[12] = as §4; assay type: ADME, organism-based, SD, Feces; set-up: dose 0.45 ug.eq.Kg-1, dosed compound id 2.46808e+06, dosed compound name 14C-Epirubicin, route intravenous, sampling time 0-48 h, study doses 0.45 ug.eq.Kg-1; conditions: in vivo
[13] = as §1; assay type: ADME, organism-based, SD; set-up: dose 1 mg.Kg-1, dosed compound id 2.46808e+06, dosed compound name 14C-Epirubicin, route intravenous, sampling time 0-1 h; conditions: in vivo
[14] = as §6; assay type: ADME, organism-based, SD; set-up: dose 0.45 ug.eq.Kg-1, dosed compound id 2.46808e+06, dosed compound name 14C-Epirubicin, route intravenous, sampling time 0-24 h, study doses 0.45 ug.eq.Kg-1; conditions: in vivo
[15] = as §6; assay type: ADME, organism-based, SD; set-up: dose 0.45 ug.eq.Kg-1, dosed compound id 2.46808e+06, dosed compound name 14C-Epirubicin, route intravenous, sampling time 0-2 h, study doses 0.45 ug.eq.Kg-1; conditions: in vivo
[16] = as §6; assay type: ADME, organism-based, SD; set-up: dose 0.45 ug.eq.Kg-1, dosed compound id 2.46808e+06, dosed compound name 14C-Epirubicin, route intravenous, sampling time 0-6 h, study doses 0.45 ug.eq.Kg-1; conditions: in vivo
[17] = as §5; assay type: ADME, organism-based, SD, Feces; set-up: dose 1 mg.Kg-1, dosed compound id 2.46808e+06, dosed compound name 14C-Epirubicin, route intravenous, sampling time 0-4 h; conditions: in vivo
[18] = as §2; assay type: ADME, organism-based, SD; set-up: dose 0.45 ug.eq.Kg-1, dosed compound id 2.46808e+06, dosed compound name 14C-Epirubicin, route intravenous, sampling time 0-6 h, study doses 0.45 ug.eq.Kg-1; conditions: in vivo
[19] = as §3; assay type: ADME, organism-based, SD; set-up: dose 1 mg.Kg-1, dosed compound id 2.46808e+06, dosed compound name 14C-Epirubicin, route intravenous, sampling time 0-6 h; conditions: in vivo
[20] = as §2; assay type: ADME, organism-based, SD; set-up: dose 0.45 ug.eq.Kg-1, dosed compound id 2.46808e+06, dosed compound name 14C-Epirubicin, route intravenous, sampling time 0-1 h, study doses 0.45 ug.eq.Kg-1; conditions: in vivo
[21] = as §5; assay type: ADME, organism-based, SD, Feces; set-up: dose 1 mg.Kg-1, dosed compound id 2.46808e+06, dosed compound name 14C-Epirubicin, route intravenous, sampling time 0-48 h; conditions: in vivo
[22] = as §3; assay type: ADME, organism-based, SD; set-up: dose 1 mg.Kg-1, dosed compound id 2.46808e+06, dosed compound name 14C-Epirubicin, route intravenous, sampling time 0-2 h; conditions: in vivo
[23] = as §1; assay type: ADME, organism-based, SD; set-up: dose 1 mg.Kg-1, dosed compound id 2.46808e+06, dosed compound name 14C-Epirubicin, route intravenous, sampling time 0-48 h; conditions: in vivo
[24] = as §6; assay type: ADME, organism-based, SD; set-up: dose 0.45 ug.eq.Kg-1, dosed compound id 2.46808e+06, dosed compound name 14C-Epirubicin, route intravenous, sampling time 0-1 h, study doses 0.45 ug.eq.Kg-1; conditions: in vivo
[25] = as §5; assay type: ADME, organism-based, SD, Feces; set-up: dose 1 mg.Kg-1, dosed compound id 2.46808e+06, dosed compound name 14C-Epirubicin, route intravenous, sampling time 0-8 h; conditions: in vivo
[26] = as §1; assay type: ADME, organism-based, SD; set-up: dose 1 mg.Kg-1, dosed compound id 2.46808e+06, dosed compound name 14C-Epirubicin, route intravenous, sampling time 0-6 h; conditions: in vivo
[27] = as §3; assay type: ADME, organism-based, SD; set-up: dose 1 mg.Kg-1, dosed compound id 2.46808e+06, dosed compound name 14C-Epirubicin, route intravenous, sampling time 0-48 h; conditions: in vivo
[28] = as §5; assay type: ADME, organism-based, SD, Feces; set-up: dose 1 mg.Kg-1, dosed compound id 2.46808e+06, dosed compound name 14C-Epirubicin, route intravenous, sampling time 0-12 h; conditions: in vivo
[29] = as §2; assay type: ADME, organism-based, SD; set-up: dose 0.45 ug.eq.Kg-1, dosed compound id 2.46808e+06, dosed compound name 14C-Epirubicin, route intravenous, sampling time 0-48 h, study doses 0.45 ug.eq.Kg-1; conditions: in vivo
[30] = as §3; assay type: ADME, organism-based, SD; set-up: dose 1 mg.Kg-1, dosed compound id 2.46808e+06, dosed compound name 14C-Epirubicin, route intravenous, sampling time 0-8 h; conditions: in vivo
[31] = as §1; assay type: ADME, organism-based, SD; set-up: dose 1 mg.Kg-1, dosed compound id 2.46808e+06, dosed compound name 14C-Epirubicin, route intravenous, sampling time 0-24 h; conditions: in vivo
[32] = as §3; assay type: ADME, organism-based, SD; set-up: dose 1 mg.Kg-1, dosed compound id 2.46808e+06, dosed compound name 14C-Epirubicin, route intravenous, sampling time 0-1 h; conditions: in vivo
[33] = as §4; assay type: ADME, organism-based, SD, Feces; set-up: dose 0.45 ug.eq.Kg-1, dosed compound id 2.46808e+06, dosed compound name 14C-Epirubicin, route intravenous, sampling time 0-6 h, study doses 0.45 ug.eq.Kg-1; conditions: in vivo
[34] = Excretion of radioactivity in urine following single intravenous 14C-epirubicin at 75 mg.m-2 dose in cancer patients; assay type: ADME, organism-based; set-up: dose 75 mg.m-2, dosed compound id 2.46808e+06, dosed compound name 14C-Epirubicin, regimen Single, sampling time 10 Day; conditions: human, in vivo, at 75 mg/m2
[35] = as §2; assay type: ADME, organism-based, SD; set-up: dose 0.45 ug.eq.Kg-1, dosed compound id 2.46808e+06, dosed compound name 14C-Epirubicin, route intravenous, sampling time 0-24 h, study doses 0.45 ug.eq.Kg-1; conditions: in vivo
[36] = as §2; assay type: ADME, organism-based, SD; set-up: dose 0.45 ug.eq.Kg-1, dosed compound id 2.46808e+06, dosed compound name 14C-Epirubicin, route intravenous, sampling time 0-8 h, study doses 0.45 ug.eq.Kg-1; conditions: in vivo
[37] = as §6; assay type: ADME, organism-based, SD; set-up: dose 0.45 ug.eq.Kg-1, dosed compound id 2.46808e+06, dosed compound name 14C-Epirubicin, route intravenous, sampling time 0-8 h, study doses 0.45 ug.eq.Kg-1; conditions: in vivo
[38] = as §1; assay type: ADME, organism-based, SD; set-up: dose 1 mg.Kg-1, dosed compound id 2.46808e+06, dosed compound name 14C-Epirubicin, route intravenous, sampling time 0-12 h; conditions: in vivo
[39] = as §4; assay type: ADME, organism-based, SD, Feces; set-up: dose 0.45 ug.eq.Kg-1, dosed compound id 2.46808e+06, dosed compound name 14C-Epirubicin, route intravenous, sampling time 0-1 h, study doses 0.45 ug.eq.Kg-1; conditions: in vivo
[40] = as §5; assay type: ADME, organism-based, SD, Feces; set-up: dose 1 mg.Kg-1, dosed compound id 2.46808e+06, dosed compound name 14C-Epirubicin, route intravenous, sampling time 0-1 h; conditions: in vivo
[41] = as §5; assay type: ADME, organism-based, SD, Feces; set-up: dose 1 mg.Kg-1, dosed compound id 2.46808e+06, dosed compound name 14C-Epirubicin, route intravenous, sampling time 0-6 h; conditions: in vivo
[42] = as §3; assay type: ADME, organism-based, SD; set-up: dose 1 mg.Kg-1, dosed compound id 2.46808e+06, dosed compound name 14C-Epirubicin, route intravenous, sampling time 0-12 h; conditions: in vivo
[43] = as §2; assay type: ADME, organism-based, SD; set-up: dose 0.45 ug.eq.Kg-1, dosed compound id 2.46808e+06, dosed compound name 14C-Epirubicin, route intravenous, sampling time 0-4 h, study doses 0.45 ug.eq.Kg-1; conditions: in vivo
[44] = Decrease in leukocytes observed following reference intravenous doxorubicin at 1 mg.Kg-1 per week in rat; assay type: toxicity, organism-based, SD, Blood; set-up: dose 1 mg.Kg-1, dosed compound id 2.46809e+06, dosed compound name Doxorubicin, dose level High, gender Mixed, regimen Once per week, route intravenous, sampling time 36 Week, study doses 0/0.3/0.6/1 mg.Kg-1; conditions: in vivo
[45] = as §1; assay type: ADME, organism-based, SD; set-up: dose 1 mg.Kg-1, dosed compound id 2.46808e+06, dosed compound name 14C-Epirubicin, route intravenous, sampling time 0-4 h; conditions: in vivo
[46] = as §4; assay type: ADME, organism-based, SD, Feces; set-up: dose 0.45 ug.eq.Kg-1, dosed compound id 2.46808e+06, dosed compound name 14C-Epirubicin, route intravenous, sampling time 0-24 h, study doses 0.45 ug.eq.Kg-1; conditions: in vivo

In the case of `COc1cccc2c1C(=O)c1c(O)c3c(c(O)c1C2=O)C[C@@](O)(C(=O)CO)C[C@@H]3O[C@H]1C[C@H](N)[C@@H](O)[C@H](C)O1` [EPIRUBICIN], the Radiolabel recovery [1] is reported as “OUTCOME = Observed”, the Radiolabel recovery [2] is reported as 0.27% and the Radiolabel recovery [3] is reported as 38.44%. For the same molecule, the Radiolabel recovery [4] was “OUTCOME = Observed”, the Radiolabel recovery [5] was 24% and the Radiolabel recovery [6] was “OUTCOME = Observed”. For the same molecule, the Radiolabel recovery [7] was “OUTCOME = Not detectable”, the Radiolabel recovery [8] was “OUTCOME = Observed” and the Radiolabel recovery [9] was 22.93%. The Radiolabel recovery [10] was “OUTCOME = Observed”, the Radiolabel recovery [11] was “OUTCOME = Observed” and the Radiolabel recovery [12] was 48.78%. For the same molecule, the Radiolabel recovery [13] was “OUTCOME = Observed”, the Radiolabel recovery [14] was 2.14% and the Radiolabel recovery [15] was “OUTCOME = Observed”. The Radiolabel recovery [16] was “OUTCOME = Observed”, the Radiolabel recovery [17] was “OUTCOME = Observed” and the Radiolabel recovery [18] was 5.17%. For the same molecule, the Radiolabel recovery [19] was 25.25%, the Radiolabel recovery [20] was 0.06% and the Radiolabel recovery [21] was 4.44%. For the same molecule, the Radiolabel recovery [22] was 18.13%, the Radiolabel recovery [23] was 14.74% and the Radiolabel recovery [24] was “OUTCOME = Observed”. For the same molecule, the Radiolabel recovery [25] was “OUTCOME = Observed”, the Radiolabel recovery [26] was 7.31% and the Radiolabel recovery [27] was 47.72%. It also gave a Radiolabel recovery [28] of 1.77%, a Radiolabel recovery [29] of 17.32% and a Radiolabel recovery [30] of 28.39%. For the same molecule, the Radiolabel recovery [31] was 12%, the Radiolabel recovery [32] was 13.22% and the Radiolabel recovery [33] was “OUTCOME = Observed”. The Radiolabel recovery [34] was 16%, the Radiolabel recovery [35] was 14.72% and the Radiolabel recovery [36] was 7.05%. The Radiolabel recovery [37] was 0.54%, the Radiolabel recovery [38] was 8.56% and the Radiolabel recovery [39] was “OUTCOME = Observed”. The Radiolabel recovery [40] was “OUTCOME = Observed”, the Radiolabel recovery [41] was 1.18% and the Radiolabel recovery [42] was 30.19%. The Radiolabel recovery [43] was 2.01%, the WBC_CHANGE [44] was 45% and the Radiolabel recovery [45] was “OUTCOME = Observed”. It also gave a Radiolabel recovery [46] of 26%.

Source: ChEMBL document CHEMBL3508140 (2016)
